From patent US8440837B2, “2-substituted-ethynylthiazole derivatives and uses of same” (H. Lundbeck A/S, priority 2009, dated 2013)
pEC50, pIC50: −log10 of the molar value.

Columns and labels:
[1] = target: human metabotropic glutamate receptor 5 (hmGluR5); test: Calcium mobilization (FLIPR) assay, negative allosteric modulation of the EC80 glutamate response; type: cell-based; conditions: HEK 293 cells, inhibition of EC80 glutamate response
Method: (§1) The cDNA for human metabotropic glutamate receptor 5 (hmGluR5) was a generous gift from S. Nakanishi (Kyoto University, Kyoto, Japan). The […] was stably expressed in a HEK 293 cell line and grown in Dulbecco's Modified Eagle Medium (DMEM) (Invitrogen, Carlsbad, Calif.) with supplements (10% bovine calf serum, 4 mM glutamine, 100 units/mL penicillin, 100 μg/mL streptomycin and […]) at 37° C., 5% CO2. Twenty-four hours prior to assay, cells were seeded into 384-well black wall microtiter plates coated with poly-D-lysine. Just prior to assay, media was aspirated and cells dye-loaded (25 μL/well) with 3 μM Fluo-4/0.01% pluronic acid in assay buffer (Hank's Balanced Saline Solution (HBSS)): 150 mM NaCl, 5 mM KCl, 1 mM CaCl2, 1 mM MgCl2, plus 20 mM N-2-Hydroxyethylpiperazine-N′-2-ethanesulfonic acid (HEPES), pH 7.4, 0.1% bovine serum albumin (BSA) and 2.5 mM probenicid) for 1 hour in 5% CO2 at 37° C. After excess dye was discarded, cells were washed in assay buffer and layered with a final volume equal to 30 μL/well. Basal fluorescence is monitored in a fluorometric imaging plate reader (FLIPR) (Molecular Devices, Sunnyvale, Calif.) with an excitation wavelength of 488 nm and an emission range of 500 to 560 nm. Laser excitation energy was adjusted so that basal fluorescence readings were approximately 10,000 relative fluorescent units. Cells were stimulated with an EC20 or an EC80 concentration of glutamate in the presence of a compound to be tested, both diluted in assay buffer, and relative fluorescent units were measured at defined intervals (exposure=0.6 sec) over a 3 min period at room temperature. Basal readings derived from negative controls were subtracted from all samples. Maximum change in fluorescence was calculated for each well. Concentration-response curves derived from the maximum change in fluorescence were analyzed by nonlinear regression (Hill equation).
A negative allosteric modulator (NAM) can be identified from these concentration-response curves if a compound produces a concentration dependent inhibition of the EC80 glutamate response.

[2] = target: human metabotropic glutamate receptor 5 (hmGluR5) (UniProt P31424); test: Calcium mobilization (FLIPR) assay, positive allosteric modulation of the EC20 glutamate response; type: cell-based; conditions: HEK 293 cells; for maximum modulation (Emax): EC20 glutamate response; for pEC50: increase in EC20 glutamate response
Method: as §1
A silent allosteric modulator (SAM) can be identified by using a combination of both the calcium mobilization assay data and the radioligand binding data. As used herein, the term “silent allosteric modulator” refers to a ligand that binds to an allosteric site of the receptor but has no measurable intrinsic efficacy.

Row | pIC50 [1] | maximum modulation (Emax) [2] | pEC50 [2] | Compound
1 | 8.49 |  |  | O=C(c1cnc(C#Cc2ccccc2)s1)N1CCCC1 [Example 4, (2-Phenylethynyl-thiazol-5-yl)-pyrrolidin-1-yl-methanone]
2 | 8.49 |  |  | O=C(c1cnc(C#Cc2ccccc2)s1)N1CC[C@H](F)C1 [Example 5, ((S)-3-Fluoro-pyrrolidin-1-yl)-(2-phenylethynyl-thiazol-5-yl)-methanone]
3 | 7.43 |  |  | O=C(c1cnc(C#Cc2ccccc2)s1)N1CC[C@@H](F)C1 [Example 6, ((R)-3-Fluoro-pyrrolidin-1-yl)-(2-phenylethynyl-thiazol-5-yl)-methanone]
4 | 7.28 |  |  | Cc1nc(C#Cc2ccccc2)sc1C(=O)N1CCCCC1 [Example 13, (4-Methyl-2-phenylethynyl-thiazol-5-yl)-piperidin-1-yl-methanone]
5 | 7.44 |  |  | Cc1nc(C#Cc2ccccc2)sc1C(=O)NC1CCCC1 [Example 16, 4-Methyl-2-phenylethynyl-thiazole-5-carboxylic acid cyclopentylamide]
6 | 8.15 |  |  | O=C(c1cnc(C#Cc2cccc(F)c2)s1)N1CCCC1 [Example 21, [2-(3-Fluoro-phenylethynyl)-thiazol-5-yl]-pyrrolidin-1-yl-methanone]
7 | 9.15 |  |  | Cc1cccc(C#Cc2ncc(C(=O)NC3CCCC3)s2)c1 [Example 24, 2-m-Tolylethynyl-thiazole-5-carboxylic acid cyclopentylamide]
8 |  | 140% | 7.24 | COC1CCN(C(=O)c2cnc(C#Cc3ccccc3)s2)CC1 [Example 121, (4-Methoxy-piperidin-1-yl)-(2-phenylethynyl-thiazol-5-yl)-methanone]
9 |  | 130% | 6.66 | CCOC1CCN(C(=O)c2cnc(C#Cc3ccccc3)s2)CC1 [Example 122, (4-Ethoxy-piperidin-1-yl)-(2-phenylethynyl-thiazol-5-yl)-methanone]
10 |  | 40% | 6.64 | O=C(c1cnc(C#Cc2ccccc2)s1)N1CC(N2CCOCC2)C1 [Example 132, (3-Morpholin-4-yl-azetidin-1-yl)-(2-phenylethynyl-thiazol-5-yl)-methanone]
11 |  | 180% | 7.70 | O=C(c1cnc(C#Cc2ccccc2)s1)N1CCc2sccc2C1 [Example 135, (6,7-Dihydro-4H-thieno[3,2-c]pyridin-5-yl)-(2-phenylethynyl-thiazol-5-yl)-methanone]
12 |  | 38% | 6.96 | CC1(O)CCN(C(=O)c2cnc(C#Cc3ccccc3)s2)C1 (stereo not drawn) [Example 137, (3-Hydroxy-3-methyl-pyrrolidin-1-yl)-(2-phenylethynyl-thiazol-5-yl)-methanone]
13 |  | 110% | 6.96 | O=C1CCN(C(=O)c2cnc(C#Cc3ccccc3)s2)C1 [Example 140, 1-(2-Phenylethynyl-thiazole-5-carbonyl)-pyrrolidin-3-one]
14 |  |  | 5.40 | O=C(c1cnc(C#Cc2ccccc2)s1)N1CCC(N2CCCC2)C1 (stereo not drawn) [Example 141, [1,3]Bipyrrolidinyl-1-yl-(2-phenylethynyl-thiazol-5-yl)-methanone]
15 |  | 110% | 8.74 | O=C(c1cnc(C#Cc2ccccc2)s1)N1CC2CCCC2C1 (stereo not drawn) [Example 144, (Hexahydro-cyclopenta[c]pyrrol-2-yl)-(2-phenylethynyl-thiazol-5-yl)-methanone]
16 |  | 69% | 8.09 | O=C(c1cnc(C#Cc2ccccc2)s1)N1CC2CCC1C2 (stereo not drawn) [Example 146, (2-Aza-bicyclo[2.2.1]hept-2-yl)-(2-phenylethynyl-thiazol-5-yl)-methanone]
17 |  | 100% | 5.47 | O=C(c1cnc(C#Cc2ccccc2)s1)N1CCCC(N2CCOCC2)CC1 (stereo not drawn) [Example 148, (4-Morpholin-4-yl-azepan-1-yl)-(2-phenylethynyl-thiazol-5-yl)-methanone]
18 |  | 61% | 7.14 | CC1(O)CCCN(C(=O)c2cnc(C#Cc3ccccc3)s2)CC1 (stereo not drawn) [Example 151, (4-Hydroxy-4-methyl-azepan-1-yl)-(2-phenylethynyl-thiazol-5-yl)-methanone]
19 |  | 94% | 6.85 | CN1CCN(C(=O)c2cnc(C#Cc3cccc(Cl)c3)s2)CC1 [Example 158, [2-(3-Chloro-phenylethynyl)-thiazol-5-yl]-(4-methyl-piperazin-1-yl)-methanone]

Row | pIC50 [1] | maximum modulation (Emax) [2] | pEC50 [2] | Compound
20 |  | 74% | 6.29 | CCN1CCN(C(=O)c2cnc(C#Cc3cccc(Cl)c3)s2)CC1 [Example 159, [2-(3-Chloro-phenylethynyl)-thiazol-5-yl]-(4-ethyl-piperazin-1-yl)-methanone]
21 |  | 150% | 5.72 | O=C(c1cnc(C#Cc2ccccc2)s1)N1CC2(COC2)C1 [Example 167, (2-Oxa-6-aza-spiro[3.3]hept-6-yl)-(2-phenylethynyl-thiazol-5-yl)-methanone]
22 |  | 95% | 5.21 | O=C(c1cnc(C#Cc2cccnc2)s1)N1CCCCC1 [Example 188, Piperidin-1-yl-(2-pyridin-3-ylethynyl-thiazol-5-yl)-methanone]
23 |  | 78% | 8.28 | O=C(c1cnc(C#Cc2ccsc2)s1)N1CCCCC1 [Example 190, Piperidin-1-yl-(2-thiophen-3-ylethynyl-thiazol-5-yl)-methanone]
24 |  | 64% | 5.66 | COc1ccc(C#Cc2ncc(C(=O)N3CCCCC3)s2)cc1 [Example 192, [2-(4-Methoxy-phenylethynyl)-thiazol-5-yl]-piperidin-1-yl-methasone]
25 |  | 45% | 7.92 | N#Cc1cccc(C#Cc2ncc(C(=O)N3CCCCC3)s2)c1 [Example 196, 3-[5-(Piperidine-1-carbonyl)-thiazol-2-ylethynyl]-benzonitrile]
26 |  | 160% | 6.29 | O=C(c1cnc(C#CC2CCCCC2)s1)N1CCCCC1 [Example 200, (2-Cyclohexylethynyl-thiazol-5-yl)-piperidin-1-yl-methanone]
27 |  | 130% | 7.01 | C(#Cc1ncc(CN2CCCCC2)s1)c1ccccc1 [Example 206, 1-(2-Phenylethynyl-thiazol-5-ylmethyl)-piperidine]
28 |  | 110% | 6.66 | C(#Cc1ncc(CN2CCCC2)s1)c1ccccc1 [Example 207, 2-Phenylethynyl-5-pyrrolidin-1-ylmethyl-thiazole]
29 |  | 71% | 7.43 | CN(C)Cc1cnc(C#Cc2ccccc2)s1 [Example 212, Dimethyl-(2-phenylethynyl-thiazol-5-ylmethyl)-amine]
30 |  | 120% | 6.12 | COC1CN(Cc2cnc(C#Cc3ccccc3)s2)C1 [Example 214, 5-(3-Methoxy-azetidin-1-ylmethyl)-2-phenylethynyl-thiazole]
31 |  | 79% | 6.42 | C(#Cc1ncc(CN2CC3CCC2C3)s1)c1ccccc1 (stereo not drawn) [Example 218, 2-(2-Phenylethynyl-thiazol-5-ylmethyl)-2-aza-bicyclo[2.2.1]heptane]
32 |  | 110% | 7.44 | FC1(F)CCN(Cc2cnc(C#Cc3ccccc3)s2)CC1 [Example 223, 4,4-Difluoro-1-(2-phenylethynyl-thiazol-5-ylmethyl)-piperidine]
33 |  | 110% | 7.48 | F[C@@H]1CCN(Cc2cnc(C#Cc3ccccc3)s2)C1 [Example 230, 5-((R)-3-Fluoro-pyrrolidin-1-ylmethyl)-2-phenylethynyl-thiazole]
34 |  | 62% | 6.66 | CC(c1cnc(C#Cc2ccccc2)s1)N1CCOCC1 (stereo not drawn) [Example 232, 4-[1-(2-Phenylethynyl-thiazol-5-yl)-ethyl]-morpholine]
35 |  | 50% | 7.28 | OC(c1cnc(C#Cc2ccccc2)s1)C1CCCCC1 (stereo not drawn) [Example 235, Cyclohexyl-(2-phenylethynyl-thiazol-5-yl)-methanol]
36 |  | 130% | 6.96 | O=C(c1cnc(C#Cc2ccccc2)s1)C1CCCCC1 [Example 238, Cyclohexyl-(2-phenylethynyl-thiazol-5-yl)-methanone]
37 |  | 170% | 6.72 | CC(=O)c1cnc(C#Cc2ccccc2)s1 [Example 239, 1-(2-Phenylethynyl-thiazol-5-yl)-ethanone]
